Experimental data from patent publication US20240208964A1, “PYRIDOPYRIMIDINES AND METHODS OF THEIR USE” (PYRIDOPYRIMIDINES AND METHODS OF THEIR USE, priority 2020, published 2024).
Read-outs that look alike come from different tables or passages of the source.

Biological target: full-length human PIKFYVE (GST-PIKFYVE) (Homo sapiens (Human), UniProt Q9Y2I7, L932S/Q1183K/Q995L/S1033A/S696N/T998S)
Assay: PIKfyve biochemical assay (ADP-Glo Kinase assay, Carna Biosciences)
Excerpt: PIKfyve Biochemical Assay. The biochemical PIKFyve inhibition assays were run by Carna Biosciences according to proprietary methodology based on the Promega ADP-Glo™ Kinase assay. A full-length human PIKFYVE [1-2098(end) amino acids and S696N, L932S, Q995L, T998S, S1033A and Q1183K of the protein having the sequence set forth in NCBI Reference Sequence No. NP_055855.2] was expressed as N-terminal GST-fusion protein (265 kDa) using baculovirus expression system. GST-PIKFYVE was purified by using glutathione sepharose chromatography and used in an ADP-Glo™ Kinase assay (Promega). Reactions were set up by adding the test compound solution, substrate solution, ATP solution and kinase solution, each at 4× final concentrations. Reactions were prepared with assay buffer (50 mM MOPS, 1 mM DTT, pH7.2), mixed, and incubated in black 384 well polystyrene plates for 1 hour at room temperature. ADP-Glo™ reagent was then added for 40 minutes, followed by kinase detection reagent for an additional 40 minutes. The kinase activity was evaluated by detecting relative light units on a luminescence plate reader. Samples were run in duplicate from 10 μM to 3 nM. […] IC50 values were calculated from concentration vs % inhibition curves by fitting to a four-parameter logistic curve.
The biochemical PIKFyve inhibition assays were run by Carna Biosciences according to proprietary methodology based on the Promega ADP-Glo™ Kinase assay. A full-length human PIKFYVE [1-2098(end) amino acids and S696N, L932S, Q995L, T998S, S1033A and Q1183K of accession number NP_055855.2] was expressed as N-terminal GST-fusion protein (265 kDa) using baculovirus expression system. GST-PIKFYVE was purified by using glutathione sepharose chromatography and used in an ADP-Glo™ Kinase assay (Promega).
Reactions were set up by adding the test compound solution, substrate solution, ATP solution and kinase solution, each at 4× final concentrations. Reactions were prepared with assay buffer (50 mM MOPS, 1 mM DTT, pH7.2), mixed, and incubated in black 384 well polystyrene plates for 1 hour at room temperature. ADP-Glo™ reagent was then added for 40 minutes, followed by kinase detection reagent for an additional 40 minutes. The kinase activity was evaluated by detecting relative light units on a luminescence plate reader. Samples were run in duplicate from 10 uM to 3 nM. […] IC50 values were calculated from concentration vs % inhibition curves by fitting to a four-parameter logistic curve.

[1] = ADP-Glo, full-length human PIKFYVE, read-out: hPIKfyve IC50

Chain of full-length human PIKFYVE (GST-PIKFYVE) (Q9Y2I7 whole entry S696N/L932S/Q995L/T998S/S1033A/Q1183K): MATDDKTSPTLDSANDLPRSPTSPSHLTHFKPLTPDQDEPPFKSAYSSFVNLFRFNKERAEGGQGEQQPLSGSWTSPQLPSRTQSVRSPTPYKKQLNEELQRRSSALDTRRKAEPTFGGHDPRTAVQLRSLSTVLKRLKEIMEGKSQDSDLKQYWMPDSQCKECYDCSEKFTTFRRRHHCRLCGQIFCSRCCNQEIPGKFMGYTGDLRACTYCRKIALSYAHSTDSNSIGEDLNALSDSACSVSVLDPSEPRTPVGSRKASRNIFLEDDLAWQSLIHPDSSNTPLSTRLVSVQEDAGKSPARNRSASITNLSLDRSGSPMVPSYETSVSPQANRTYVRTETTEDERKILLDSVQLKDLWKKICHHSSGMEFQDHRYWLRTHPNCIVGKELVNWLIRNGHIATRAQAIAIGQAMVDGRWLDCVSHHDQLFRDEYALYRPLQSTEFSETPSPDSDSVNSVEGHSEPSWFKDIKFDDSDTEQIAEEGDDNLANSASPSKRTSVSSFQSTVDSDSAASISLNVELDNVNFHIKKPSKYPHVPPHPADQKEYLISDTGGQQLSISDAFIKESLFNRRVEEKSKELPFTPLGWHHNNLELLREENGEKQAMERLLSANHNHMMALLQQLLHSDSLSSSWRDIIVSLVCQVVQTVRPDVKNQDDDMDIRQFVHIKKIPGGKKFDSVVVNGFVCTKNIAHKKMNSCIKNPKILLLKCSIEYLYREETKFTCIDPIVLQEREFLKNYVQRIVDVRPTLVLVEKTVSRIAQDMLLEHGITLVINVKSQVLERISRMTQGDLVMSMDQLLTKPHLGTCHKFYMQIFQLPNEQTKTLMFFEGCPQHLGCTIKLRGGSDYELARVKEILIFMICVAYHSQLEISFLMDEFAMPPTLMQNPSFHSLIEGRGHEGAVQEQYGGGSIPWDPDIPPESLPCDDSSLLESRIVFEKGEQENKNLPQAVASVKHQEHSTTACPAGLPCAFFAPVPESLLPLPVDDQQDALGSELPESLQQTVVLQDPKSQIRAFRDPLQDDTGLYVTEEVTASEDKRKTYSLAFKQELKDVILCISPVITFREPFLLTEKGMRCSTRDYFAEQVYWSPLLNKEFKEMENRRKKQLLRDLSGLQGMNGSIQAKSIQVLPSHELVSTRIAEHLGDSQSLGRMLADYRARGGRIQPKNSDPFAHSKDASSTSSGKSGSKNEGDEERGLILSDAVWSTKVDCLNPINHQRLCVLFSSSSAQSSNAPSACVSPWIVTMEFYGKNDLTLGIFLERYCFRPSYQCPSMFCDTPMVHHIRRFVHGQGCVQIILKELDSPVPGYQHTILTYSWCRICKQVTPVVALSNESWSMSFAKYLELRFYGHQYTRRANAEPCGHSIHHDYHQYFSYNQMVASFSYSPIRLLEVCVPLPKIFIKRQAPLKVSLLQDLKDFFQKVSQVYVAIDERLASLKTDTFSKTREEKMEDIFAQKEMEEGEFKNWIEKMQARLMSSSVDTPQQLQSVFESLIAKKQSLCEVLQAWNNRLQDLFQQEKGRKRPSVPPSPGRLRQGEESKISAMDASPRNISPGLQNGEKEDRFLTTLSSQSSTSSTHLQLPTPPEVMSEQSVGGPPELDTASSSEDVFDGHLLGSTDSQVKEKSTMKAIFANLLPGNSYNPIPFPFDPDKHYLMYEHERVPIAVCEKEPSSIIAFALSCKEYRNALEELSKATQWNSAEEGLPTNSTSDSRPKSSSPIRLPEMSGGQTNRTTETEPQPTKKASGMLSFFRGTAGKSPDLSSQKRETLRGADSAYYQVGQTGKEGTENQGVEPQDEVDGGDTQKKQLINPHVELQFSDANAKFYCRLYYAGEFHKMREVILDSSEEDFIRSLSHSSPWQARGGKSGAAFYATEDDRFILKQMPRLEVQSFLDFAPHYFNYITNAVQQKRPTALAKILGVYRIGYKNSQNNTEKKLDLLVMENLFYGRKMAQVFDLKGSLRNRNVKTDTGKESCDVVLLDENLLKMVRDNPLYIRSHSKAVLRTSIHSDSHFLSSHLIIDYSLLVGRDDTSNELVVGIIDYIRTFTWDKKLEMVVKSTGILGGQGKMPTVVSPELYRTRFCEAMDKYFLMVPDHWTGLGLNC

| Compound | IC50 [1] | IC50 (values plotted in FIG. 7, read-out: PIKFYVE Biochemistry (IC50)) |
| --- | --- | --- |
| c1ccc(-c2ccn(-c3nc(N4CCOCC4)c4ncc(C5CCCOC5)cc4n3)n2)cc1 (stereo not drawn) [compound 19, 4-(2-(3-Phenyl-1H-pyrazol-1-yl)-7-(tetrahydro-2H-pyran-3-yl)pyrido[3,2-d]pyrimidin-4-yl)morpholine] | 10 to 100 nM | – |
| CC(C)c1ccn(-c2nc(N3CCOCC3)c3ncccc3n2)n1 [compound 9, 4-(2-(3-isopropyl-1H-pyrazol-1-yl)pyrido[3,2-d]pyrimidin-4-yl)morpholine] | 1000 to 10000 nM | – |
| c1cnc2c(N3CCOCC3)nc(-n3ccc(C4CCCNC4)n3)nc2c1 (stereo not drawn) [compound 43, 4-(2-(3-(piperidin-3-yl)-1H-pyrazol-1-yl)pyrido[3,2-d]pyrimidin-4-yl)morpholine] | 1000 to 10000 nM | – |
| O=c1c(CCOc2cccnc2)cc2ncncc2n1-c1ccccc1 | – | > 10000 nM |
| CCC(=O)N1CCC(c2ccn(-c3nc(N4CCOCC4)c4ncccc4n3)n2)CC1 [compound 1, 1-[4-[1-(4-morpholinopyrido[3,2-d]pyrimidin-2-yl)pyrazol-3-yl]-1-piperidyl]propan-1-one] | 1000 to 10000 nM | – |
| c1ccc(-c2nccc(-c3nc(N4CCOCC4)c4ncc(Cc5cccnc5)cc4n3)n2)cc1 [compound 85] | 100 to 1000 nM | – |
| CC(C)(C)OC(=O)N1CCC(c2nccc(-c3nc(N4CCOCC4)c4ncccc4n3)n2)CC1 [compound 33, tert-butyl 4-[4-(4-morpholinopyrido[3,2-d]pyrimidin-2-yl)pyrimidin-2-yl]piperidine-1-carboxylate] | 1000 to 10000 nM | – |
| Clc1nc(N2CCOCC2)c2ncc(Cc3cccnc3)cc2n1 [compound 82] | 1000 to 10000 nM | – |
| c1cnc2c(N3CCOCC3)nc(-c3ccnc(N4CCNCC4)n3)nc2c1 [compound 34, 4-[2-(2-piperazin-1-ylpyrimidin-4-yl)pyrido[3,2-d]pyrimidin-4-yl]morpholine] | 1000 to 10000 nM | – |
| c1ccc(Oc2nc(N3CCOCC3)c3ncc(-c4ccco4)cc3n2)cc1 [compound 16, 4-(7-(furan-2-yl)-2-phenoxypyrido[3,2-d]pyrimidin-4-yl)morpholine] | > 10000 nM | – |
| c1cncc(-c2ccn(-c3nc(N4CCOCC4)c4ncccc4n3)n2)c1 [compound 11, 4-(2-(3-(pyridin-3-yl)-1H-pyrazol-1-yl)pyrido[3,2-d]pyrimidin-4-yl)morpholine] | 100 to 1000 nM | – |

Second part, led by results:

| IC50 [1] | Compound | IC50 (values plotted in FIG. 7, read-out: PIKFYVE Biochemistry (IC50)) |
| --- | --- | --- |
| 1000 to 10000 nM | c1cnc2c(N3CCOCC3)nc(-n3ccc(C4CCCNC4)n3)nc2c1 (stereo not drawn) [compound 48] | – |
| 100 to 1000 nM | c1cnc2c(N3CCOCC3)nc(-n3ccc(-c4ccncc4)n3)nc2c1 [compound 10, 4-(2-(3-(pyridin-4-yl)-1H-pyrazol-1-yl)pyrido[3,2-d]pyrimidin-4-yl)morpholine] | – |
| 1000 to 10000 nM | O=C1N(c2ccccc2)CCN1c1nc(N2CCOCC2)c2ncccc2n1 [compound 29, 1-(4-morpholinopyrido[3,2-d]pyrimidin-2-yl)-3-phenyl-imidazolidin-2-one] | – |
| 10 to 100 nM | c1cncc(Cc2nc(N3CCOCC3)c3ncccc3n2)c1 [compound 72] | – |
| 1000 to 10000 nM | c1cnc2c(N3CCOCC3)nc(-n3ccc(C4CCNCC4)n3)nc2c1 [compound 42, 4-[2-[3-(4-piperidyl)pyrazol-1-yl]pyrido[3,2-d]pyrimidin-4-yl]morpholine] | – |
| 1000 to 10000 nM | c1ccc(Oc2nc(N3CCOCC3)c3ncc(C4CCCO4)cc3n2)cc1 (stereo not drawn) [compound 88] | – |
| 100 to 1000 nM | c1ccc(Nc2nc(N3CCOCC3)c3ncc(C4CCCO4)cc3n2)cc1 (stereo not drawn) [compound 87] | – |
| 1000 to 10000 nM | CCc1cnc2c(N3CCOCC3)nc(-n3ccc(-c4ccncc4)n3)nc2c1 [compound 14, 4-(7-Ethyl-2-(3-(pyridin-4-yl)-1H-pyrazol-1-yl)pyrido[3,2-d]pyrimidin-4-yl)morpholine] | – |
| 1000 to 10000 nM | O=C1N(c2nc(N3CCOCC3)c3ncccc3n2)CCN1C1CCCC1 [compound 30, 1-cyclopentyl-3-(4-morpholinopyrido[3,2-d]pyrimidin-2-yl)imidazolidin-2-one] | – |
| 100 to 1000 nM | c1ccc(Nc2nc(N3CCOCC3)c3ncc(-c4ccco4)cc3n2)cc1 [compound 15, 7-(furan-2-yl)-4-morpholino-N-phenylpyrido[3,2-d]pyrimidin-2-amine] | – |
